# Results published in ChEMBL document CHEMBL3856204, “Chiral 6-aryl-furo[2,3-d]pyrimidin-4-amines as EGFR inhibitors” (Eur J Med Chem, 2016).
# Tests used:
# [1] = target: Platelet-derived growth factor receptor alpha (Homo sapiens) (UniProt P16234); assay: Inhibition of GST tagged recombinant human PGFRA cytoplasmic domain (550 to 1089 residues) expressed in baculovirus at 500 nM by Z'-LYTE assay
# [2] = target: Platelet-derived growth factor receptor beta (Homo sapiens) (UniProt P09619); assay: Inhibition of His tagged recombinant human PDGFRB cytoplasmic domain (558 to 1106 residues) expressed in baculovirus at 500 nM by Z'-LYTE assay
# [3] = target: Dual specificity mitogen-activated protein kinase kinase 1 (Homo sapiens) (UniProt Q02750); assay: Inhibition of His tagged recombinant full length human MEK1 expressed in baculovirus at 500 nM by Z'-LYTE assay
# Dual specificity mitogen-activated protein kinase kinase 1 (Homo sapiens), sequence (Q02750 whole entry): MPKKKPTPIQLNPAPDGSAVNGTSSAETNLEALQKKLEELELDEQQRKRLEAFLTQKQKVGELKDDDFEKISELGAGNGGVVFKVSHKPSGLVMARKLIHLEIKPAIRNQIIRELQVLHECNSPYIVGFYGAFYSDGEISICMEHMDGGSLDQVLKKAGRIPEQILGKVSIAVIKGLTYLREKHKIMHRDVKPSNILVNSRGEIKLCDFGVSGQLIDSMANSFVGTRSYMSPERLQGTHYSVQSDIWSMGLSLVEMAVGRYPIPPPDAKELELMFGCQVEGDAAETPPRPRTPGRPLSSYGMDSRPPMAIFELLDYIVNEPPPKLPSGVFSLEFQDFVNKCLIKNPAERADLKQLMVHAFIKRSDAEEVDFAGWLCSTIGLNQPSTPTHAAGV
# [4] = target: Serine/threonine-protein kinase PLK1 (Homo sapiens) (UniProt P53350); assay: Inhibition of His tagged recombinant full length human PLK1 expressed in baculovirus at 500 nM by Z'-LYTE assay
# Serine/threonine-protein kinase PLK1 (Homo sapiens), sequence (P53350 whole entry, the tested form may be a part): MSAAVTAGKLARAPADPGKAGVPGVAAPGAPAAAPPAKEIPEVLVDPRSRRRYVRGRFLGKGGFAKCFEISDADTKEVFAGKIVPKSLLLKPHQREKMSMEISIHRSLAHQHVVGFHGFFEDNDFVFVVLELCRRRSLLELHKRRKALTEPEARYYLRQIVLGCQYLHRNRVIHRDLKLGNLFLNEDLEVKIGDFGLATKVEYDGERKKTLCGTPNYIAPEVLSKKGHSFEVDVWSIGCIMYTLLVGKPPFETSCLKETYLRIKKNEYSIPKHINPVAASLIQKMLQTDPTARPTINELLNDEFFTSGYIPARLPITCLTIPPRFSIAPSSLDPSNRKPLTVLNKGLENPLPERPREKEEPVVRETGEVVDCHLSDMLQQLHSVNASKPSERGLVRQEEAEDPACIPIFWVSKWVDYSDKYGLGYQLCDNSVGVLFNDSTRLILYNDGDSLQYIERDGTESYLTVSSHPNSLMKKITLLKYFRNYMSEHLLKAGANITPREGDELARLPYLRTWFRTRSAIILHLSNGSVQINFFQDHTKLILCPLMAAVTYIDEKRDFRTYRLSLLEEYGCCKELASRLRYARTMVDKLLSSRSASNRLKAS
# [5] = target: cAMP-dependent protein kinase catalytic subunit alpha (Homo sapiens) (UniProt P17612); assay: Inhibition of His tagged recombinant human PRKACA catalytic domain (1 to 351 residues) expressed in Escherichia coli at 500 nM by Z'-LYTE assay
# [6] = target: MAP kinase-activated protein kinase 2 (Homo sapiens) (UniProt P49137); assay: Inhibition of His tagged recombinant full length human MAPKAPK2 expressed in Escherichia coli at 500 nM by Z'-LYTE assay
# MAP kinase-activated protein kinase 2 (Homo sapiens), sequence (P49137 whole entry, looked up): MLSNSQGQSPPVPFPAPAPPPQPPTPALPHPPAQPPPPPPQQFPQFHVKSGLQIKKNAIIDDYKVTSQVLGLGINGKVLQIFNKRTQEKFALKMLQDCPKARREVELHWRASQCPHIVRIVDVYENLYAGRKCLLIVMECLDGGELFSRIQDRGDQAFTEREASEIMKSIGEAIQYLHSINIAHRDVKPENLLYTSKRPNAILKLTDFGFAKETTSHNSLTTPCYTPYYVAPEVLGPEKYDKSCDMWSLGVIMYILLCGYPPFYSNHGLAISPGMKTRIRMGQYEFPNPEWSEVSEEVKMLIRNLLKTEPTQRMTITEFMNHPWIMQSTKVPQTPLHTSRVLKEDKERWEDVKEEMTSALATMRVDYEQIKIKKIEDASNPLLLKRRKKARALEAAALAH
# [7] = target: Focal adhesion kinase 1 (Homo sapiens) (UniProt Q05397); assay: Inhibition of GST tagged recombinant full length human PTK2 expressed in baculovirus at 500 nM by Z'-LYTE assay
# Focal adhesion kinase 1 (Homo sapiens), sequence (Q05397 2-1052 limits assumed): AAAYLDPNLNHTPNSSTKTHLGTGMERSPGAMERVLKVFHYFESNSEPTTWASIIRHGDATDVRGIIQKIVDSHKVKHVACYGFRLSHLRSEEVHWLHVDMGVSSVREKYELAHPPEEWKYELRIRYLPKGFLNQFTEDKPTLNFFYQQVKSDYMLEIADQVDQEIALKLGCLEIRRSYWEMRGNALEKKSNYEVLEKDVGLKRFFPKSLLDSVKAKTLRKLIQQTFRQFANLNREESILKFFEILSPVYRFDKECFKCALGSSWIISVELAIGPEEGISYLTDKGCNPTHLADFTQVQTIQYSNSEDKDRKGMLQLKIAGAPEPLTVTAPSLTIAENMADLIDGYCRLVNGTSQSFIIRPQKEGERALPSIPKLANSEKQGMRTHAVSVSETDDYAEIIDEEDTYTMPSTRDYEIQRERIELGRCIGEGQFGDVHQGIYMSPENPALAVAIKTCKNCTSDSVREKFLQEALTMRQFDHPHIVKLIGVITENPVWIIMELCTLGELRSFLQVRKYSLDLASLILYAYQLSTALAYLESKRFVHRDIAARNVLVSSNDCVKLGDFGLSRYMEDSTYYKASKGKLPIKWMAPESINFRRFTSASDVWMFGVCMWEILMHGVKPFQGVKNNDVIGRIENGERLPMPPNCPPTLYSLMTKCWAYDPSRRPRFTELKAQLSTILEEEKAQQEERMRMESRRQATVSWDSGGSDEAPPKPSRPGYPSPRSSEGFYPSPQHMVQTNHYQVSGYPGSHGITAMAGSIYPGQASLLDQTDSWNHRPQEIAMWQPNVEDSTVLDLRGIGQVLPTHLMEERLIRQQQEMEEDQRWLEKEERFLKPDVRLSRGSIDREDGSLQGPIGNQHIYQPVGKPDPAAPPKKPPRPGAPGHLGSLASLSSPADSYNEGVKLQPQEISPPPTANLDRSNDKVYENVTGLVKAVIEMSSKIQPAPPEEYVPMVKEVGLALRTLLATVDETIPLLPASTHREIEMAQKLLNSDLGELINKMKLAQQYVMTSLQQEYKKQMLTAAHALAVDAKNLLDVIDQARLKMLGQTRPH
# [8] = target: T1, Ephrin type-B receptor 1 (Homo sapiens) (UniProt P54762); assay: Inhibition of GST tagged recombinant human EPHB1 cytoplasmic domain (613 to 881 residues) expressed in baculovirus at 500 nM by Z'-LYTE assay
# T1 sequence (whole entry): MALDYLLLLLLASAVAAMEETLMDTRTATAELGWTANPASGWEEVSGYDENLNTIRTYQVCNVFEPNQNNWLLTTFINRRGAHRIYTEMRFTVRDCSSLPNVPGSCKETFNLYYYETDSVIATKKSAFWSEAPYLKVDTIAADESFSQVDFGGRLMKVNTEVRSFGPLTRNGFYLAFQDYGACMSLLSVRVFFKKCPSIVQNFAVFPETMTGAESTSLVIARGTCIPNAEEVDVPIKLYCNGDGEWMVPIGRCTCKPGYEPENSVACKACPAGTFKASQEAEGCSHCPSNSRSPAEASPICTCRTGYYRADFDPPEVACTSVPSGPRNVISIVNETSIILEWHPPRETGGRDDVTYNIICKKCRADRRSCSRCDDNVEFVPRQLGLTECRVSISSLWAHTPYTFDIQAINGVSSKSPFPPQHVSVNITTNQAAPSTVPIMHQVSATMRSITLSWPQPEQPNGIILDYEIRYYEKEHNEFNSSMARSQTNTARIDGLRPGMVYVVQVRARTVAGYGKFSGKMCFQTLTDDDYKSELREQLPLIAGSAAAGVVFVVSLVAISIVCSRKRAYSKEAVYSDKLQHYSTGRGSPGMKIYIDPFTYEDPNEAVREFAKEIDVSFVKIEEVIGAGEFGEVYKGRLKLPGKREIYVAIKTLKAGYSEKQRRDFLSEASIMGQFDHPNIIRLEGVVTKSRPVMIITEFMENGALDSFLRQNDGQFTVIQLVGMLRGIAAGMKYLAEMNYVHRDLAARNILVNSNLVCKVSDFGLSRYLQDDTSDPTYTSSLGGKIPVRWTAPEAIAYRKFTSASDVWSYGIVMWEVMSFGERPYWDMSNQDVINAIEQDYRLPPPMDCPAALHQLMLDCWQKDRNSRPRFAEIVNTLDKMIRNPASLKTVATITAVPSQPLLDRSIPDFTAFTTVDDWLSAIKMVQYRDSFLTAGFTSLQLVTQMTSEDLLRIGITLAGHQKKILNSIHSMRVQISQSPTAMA
# [9] = target: Tyrosine-protein kinase Yes (Homo sapiens) (UniProt P07947); assay: Inhibition of GST tagged recombinant full length human YES1 expressed in baculovirus at 500 nM by Z'-LYTE assay
# [10] = target: Protein kinase C theta type (Homo sapiens) (UniProt Q04759); assay: Inhibition of His tagged recombinant full length human PRKCQ expressed in baculovirus at 500 nM by Z'-LYTE assay
# Protein kinase C theta type (Homo sapiens), sequence (Q04759 whole entry, looked up, the tested form may be a part): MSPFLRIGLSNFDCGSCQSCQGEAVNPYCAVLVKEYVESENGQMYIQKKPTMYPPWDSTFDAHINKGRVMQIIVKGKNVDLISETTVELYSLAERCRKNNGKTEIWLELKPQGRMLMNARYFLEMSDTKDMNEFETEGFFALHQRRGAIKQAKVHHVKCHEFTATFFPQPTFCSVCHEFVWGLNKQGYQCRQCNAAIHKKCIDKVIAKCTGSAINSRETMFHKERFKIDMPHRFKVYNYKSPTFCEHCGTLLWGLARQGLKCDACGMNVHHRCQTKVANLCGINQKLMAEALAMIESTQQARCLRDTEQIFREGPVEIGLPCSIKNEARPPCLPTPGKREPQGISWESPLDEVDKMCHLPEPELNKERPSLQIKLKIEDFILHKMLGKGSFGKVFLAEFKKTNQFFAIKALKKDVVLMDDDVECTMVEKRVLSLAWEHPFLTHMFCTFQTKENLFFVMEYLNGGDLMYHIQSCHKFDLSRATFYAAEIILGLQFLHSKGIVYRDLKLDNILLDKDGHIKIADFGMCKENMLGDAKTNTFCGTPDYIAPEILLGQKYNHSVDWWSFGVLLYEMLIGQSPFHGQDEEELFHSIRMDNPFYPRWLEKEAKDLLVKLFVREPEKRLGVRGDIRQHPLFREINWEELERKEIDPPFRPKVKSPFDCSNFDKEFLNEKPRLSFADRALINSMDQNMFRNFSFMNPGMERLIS
# [11] = target: Fibroblast growth factor receptor 1 (Homo sapiens) (UniProt P11362); assay: Inhibition of His tagged recombinant human FGFR1 cytoplasmic domain (308 to 731 residues) expressed in baculovirus at 500 nM by Z'-LYTE assay
# [12] = target: T2, Serine/threonine-protein kinase Chk1 (Homo sapiens) (UniProt O14757); assay: Inhibition of His tagged recombinant full length human CHK1 expressed in baculovirus at 500 nM by Z'-LYTE assay
# T2 sequence (whole entry): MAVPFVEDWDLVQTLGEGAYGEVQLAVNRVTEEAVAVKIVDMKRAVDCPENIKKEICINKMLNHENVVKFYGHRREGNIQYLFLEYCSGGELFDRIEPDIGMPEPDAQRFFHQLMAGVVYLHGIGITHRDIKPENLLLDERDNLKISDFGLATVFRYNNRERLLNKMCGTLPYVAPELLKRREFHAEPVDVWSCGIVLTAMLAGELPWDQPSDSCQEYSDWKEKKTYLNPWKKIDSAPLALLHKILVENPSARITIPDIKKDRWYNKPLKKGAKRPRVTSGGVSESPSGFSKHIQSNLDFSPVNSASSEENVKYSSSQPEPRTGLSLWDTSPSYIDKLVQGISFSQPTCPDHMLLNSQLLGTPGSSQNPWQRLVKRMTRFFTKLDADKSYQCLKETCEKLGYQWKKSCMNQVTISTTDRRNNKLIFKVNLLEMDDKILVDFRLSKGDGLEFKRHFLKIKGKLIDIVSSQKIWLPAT
# [13] = target: Aurora kinase B (Homo sapiens) (UniProt Q96GD4); assay: Inhibition of His tagged recombinant full length human Aurora B expressed in baculovirus at 500 nM by Z'-LYTE assay
# Aurora kinase B (Homo sapiens), sequence (Q96GD4 whole entry): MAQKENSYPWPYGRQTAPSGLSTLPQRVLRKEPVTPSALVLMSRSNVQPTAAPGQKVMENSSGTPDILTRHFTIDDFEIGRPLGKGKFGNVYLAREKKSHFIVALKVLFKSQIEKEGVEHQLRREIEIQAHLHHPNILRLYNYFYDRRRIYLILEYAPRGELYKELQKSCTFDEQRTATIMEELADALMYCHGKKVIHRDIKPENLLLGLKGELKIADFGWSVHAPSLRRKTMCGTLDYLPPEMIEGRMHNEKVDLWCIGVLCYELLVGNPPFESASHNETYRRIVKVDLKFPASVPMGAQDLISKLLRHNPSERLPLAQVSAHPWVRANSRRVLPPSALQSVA
# [14] = target: Tyrosine-protein kinase SYK (Homo sapiens) (UniProt P43405); assay: Inhibition of recombinant full length human N-terminal GST-tagged SYK expressed in baculovirus at 500 nM by Z'-LYTE assay
# [15] = target: Glycogen synthase kinase-3 beta (Homo sapiens) (UniProt P49841); assay: Inhibition of His tagged recombinant full length human GSK3B expressed in baculovirus at 500 nM by Z'-LYTE assay
# Glycogen synthase kinase-3 beta (Homo sapiens), sequence (P49841 whole entry, looked up): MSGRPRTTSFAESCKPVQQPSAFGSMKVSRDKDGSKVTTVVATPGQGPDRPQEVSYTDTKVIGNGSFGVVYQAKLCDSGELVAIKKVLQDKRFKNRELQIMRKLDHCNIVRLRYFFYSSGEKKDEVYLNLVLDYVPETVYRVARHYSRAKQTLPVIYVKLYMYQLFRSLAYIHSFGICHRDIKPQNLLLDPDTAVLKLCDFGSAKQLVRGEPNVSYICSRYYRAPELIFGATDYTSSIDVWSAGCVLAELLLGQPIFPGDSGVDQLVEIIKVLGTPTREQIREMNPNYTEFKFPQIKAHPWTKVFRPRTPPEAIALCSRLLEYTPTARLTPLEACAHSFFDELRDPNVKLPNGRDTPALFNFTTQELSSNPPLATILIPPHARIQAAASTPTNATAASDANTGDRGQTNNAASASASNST
# Platelet-derived growth factor receptor alpha (Homo sapiens), sequence (P16234 whole entry, the tested form may be a part): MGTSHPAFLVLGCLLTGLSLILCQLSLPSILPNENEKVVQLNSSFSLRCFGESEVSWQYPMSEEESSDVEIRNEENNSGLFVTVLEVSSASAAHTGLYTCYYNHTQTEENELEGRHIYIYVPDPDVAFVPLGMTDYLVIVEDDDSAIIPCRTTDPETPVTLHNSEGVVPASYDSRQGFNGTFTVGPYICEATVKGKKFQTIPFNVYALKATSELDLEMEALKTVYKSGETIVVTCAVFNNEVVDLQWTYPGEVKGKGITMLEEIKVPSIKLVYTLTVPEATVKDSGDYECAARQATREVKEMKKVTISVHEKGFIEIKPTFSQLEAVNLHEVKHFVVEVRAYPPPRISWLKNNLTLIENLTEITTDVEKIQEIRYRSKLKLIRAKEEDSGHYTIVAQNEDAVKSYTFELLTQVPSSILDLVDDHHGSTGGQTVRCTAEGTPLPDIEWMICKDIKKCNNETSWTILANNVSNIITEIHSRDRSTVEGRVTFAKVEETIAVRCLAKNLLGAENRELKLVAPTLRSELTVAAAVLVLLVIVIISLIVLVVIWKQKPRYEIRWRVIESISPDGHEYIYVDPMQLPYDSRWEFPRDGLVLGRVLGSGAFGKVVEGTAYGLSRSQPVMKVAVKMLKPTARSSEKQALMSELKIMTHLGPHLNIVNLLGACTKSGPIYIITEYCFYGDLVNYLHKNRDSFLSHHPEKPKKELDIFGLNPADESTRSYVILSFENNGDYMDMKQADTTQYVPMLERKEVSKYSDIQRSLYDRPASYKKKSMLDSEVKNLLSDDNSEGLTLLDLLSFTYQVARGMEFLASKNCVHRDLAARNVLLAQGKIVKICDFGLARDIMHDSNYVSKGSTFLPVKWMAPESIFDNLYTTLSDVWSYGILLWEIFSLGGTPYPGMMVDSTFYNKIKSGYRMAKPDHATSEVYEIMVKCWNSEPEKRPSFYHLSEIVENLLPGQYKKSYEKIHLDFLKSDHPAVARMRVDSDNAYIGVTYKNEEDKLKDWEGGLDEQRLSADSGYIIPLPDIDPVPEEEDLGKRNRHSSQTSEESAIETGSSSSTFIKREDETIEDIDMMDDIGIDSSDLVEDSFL
smiles,measurement,setting,value
C#Cc1cccc(Nc2ncnc3cc(OCCOC)c(OCCOC)cc23)c1,inhibition,[1],5%
same,inhibition,[2],-5%
same,inhibition,[3],7%
same,inhibition,[4],-9%
same,inhibition,[5],-10%
same,inhibition,[6],-1%
same,inhibition,[7],-3%
same,inhibition,[8],11%
same,inhibition,[9],29%
same,inhibition,[10],-4%
same,inhibition,[11],-4%
same,inhibition,[12],-7%
same,inhibition,[13],20 to 44%
same,inhibition,[14],14%
same,inhibition,[15],-8%
C[C@@H](Nc1ncnc2oc(-c3ccc(NCCN4CCCCC4)cc3)cc12)c1ccccc1,inhibition,[1],22%
same,inhibition,[2],5%
same,inhibition,[3],10%
same,inhibition,[4],-5%
same,inhibition,[5],5%
same,inhibition,[6],4%
same,inhibition,[7],16%
same,inhibition,[8],17%
same,inhibition,[9],54%
same,inhibition,[10],7%
same,inhibition,[11],6%
same,inhibition,[12],-9%
same,inhibition,[13],13 to 31%
same,inhibition,[14],11%
same,inhibition,[15],4%
C[C@@H](Nc1ncnc2oc(-c3ccc(NCCN(C)C)cc3)cc12)c1ccccc1,inhibition,[1],27%
same,inhibition,[2],10%
same,inhibition,[3],10%
same,inhibition,[4],0%
same,inhibition,[5],8%
same,inhibition,[6],3%
same,inhibition,[7],7%
same,inhibition,[8],17%
same,inhibition,[9],51%
same,inhibition,[10],10%
same,inhibition,[11],6%
same,inhibition,[12],-2%
same,inhibition,[13],7 to 34%
same,inhibition,[14],8%
same,inhibition,[15],4%
